Test results published in US12110279B2, “Triazolones, tetrazolones, and imidazolones, or their salts, and pharmaceutical compositions comprising the same” (Yuhan Corporation, priority 2021, dated 2024).
Where a name gives a salt, the structure may show the parent alone.

What was measured:
Assay type in all cases: biochemical
[1] = biological target: T1, recombinant human MAO-B (monoamine oxidase-B) (Homo sapiens, UniProt P27338); test: Amplex Red HRP-coupled amine oxidase activity evaluation, recombinant human MAO-B; settings: substrate 1 mM benzylamine; read-out: Inhibitory Activity (IC50, nM) MAO-B
T1 construct: purchased Sigma-Aldrich
T1 sequence (P27338 1-520): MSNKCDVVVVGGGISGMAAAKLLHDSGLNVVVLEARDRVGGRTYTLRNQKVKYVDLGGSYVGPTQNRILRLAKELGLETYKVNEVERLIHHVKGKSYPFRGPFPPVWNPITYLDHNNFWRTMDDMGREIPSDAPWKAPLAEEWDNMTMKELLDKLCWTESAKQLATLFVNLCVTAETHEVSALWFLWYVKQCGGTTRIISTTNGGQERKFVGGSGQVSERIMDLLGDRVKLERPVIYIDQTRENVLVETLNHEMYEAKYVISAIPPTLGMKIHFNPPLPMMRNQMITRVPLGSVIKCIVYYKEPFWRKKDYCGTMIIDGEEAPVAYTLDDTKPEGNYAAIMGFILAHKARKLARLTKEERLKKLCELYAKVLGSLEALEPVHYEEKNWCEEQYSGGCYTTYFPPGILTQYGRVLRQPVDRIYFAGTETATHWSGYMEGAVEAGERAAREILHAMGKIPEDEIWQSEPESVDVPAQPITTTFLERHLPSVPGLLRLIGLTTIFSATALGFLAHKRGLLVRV

[2] = biological target: T2, recombinant human VAP-1 (Homo sapiens, UniProt Q16853); test: Amplex Red HRP-coupled amine oxidase activity evaluation, recombinant human VAP-1; settings: substrate 1 mM benzylamine; 30 min preincubation at 37° C.; read-out: Inhibitory Activity (IC50, nM) human VAP-1
T2 construct: purchased R&D systems
T2 sequence (Q16853 1-763): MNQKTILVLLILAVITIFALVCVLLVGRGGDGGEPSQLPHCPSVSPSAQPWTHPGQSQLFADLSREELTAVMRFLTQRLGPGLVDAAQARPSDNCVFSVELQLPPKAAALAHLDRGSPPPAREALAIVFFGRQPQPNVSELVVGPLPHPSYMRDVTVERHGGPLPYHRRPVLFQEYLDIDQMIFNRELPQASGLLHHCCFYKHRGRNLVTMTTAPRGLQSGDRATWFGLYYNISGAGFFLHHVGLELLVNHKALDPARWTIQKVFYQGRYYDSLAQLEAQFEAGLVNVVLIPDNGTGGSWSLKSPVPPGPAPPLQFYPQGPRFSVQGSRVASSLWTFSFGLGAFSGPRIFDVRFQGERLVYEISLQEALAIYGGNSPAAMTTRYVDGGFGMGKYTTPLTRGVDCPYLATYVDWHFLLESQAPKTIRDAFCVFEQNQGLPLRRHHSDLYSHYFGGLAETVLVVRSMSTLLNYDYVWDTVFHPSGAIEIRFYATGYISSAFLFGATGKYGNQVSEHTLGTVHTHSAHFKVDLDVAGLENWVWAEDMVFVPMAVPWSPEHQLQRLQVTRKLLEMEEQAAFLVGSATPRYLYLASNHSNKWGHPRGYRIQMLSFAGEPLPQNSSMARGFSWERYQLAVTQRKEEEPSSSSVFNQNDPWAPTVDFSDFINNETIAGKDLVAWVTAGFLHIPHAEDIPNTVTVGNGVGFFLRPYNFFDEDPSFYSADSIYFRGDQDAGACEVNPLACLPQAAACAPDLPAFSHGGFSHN
Outline: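 Inhibition is scored as the % drop in resorufin signal rate relative to uninhibited DMSO control and fitted to a 4-parameter logistic curve for IC50. VAP-1 and compound are preincubated 30 min at 37° C before benzylamine substrate (1 mM in the added mix) is introduced.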

[3] = biological target: T3, recombinant human MAO-A (monoamine oxidase-A) (Homo sapiens, UniProt P21397); test: Amplex Red HRP-coupled amine oxidase activity evaluation, recombinant human MAO-A; settings: substrate 0.5 mM tyramine; read-out: Inhibitory Activity (IC50, nM) MAO-A
T3 construct: purchased Sigma-Aldrich
T3 sequence (P21397 1-527): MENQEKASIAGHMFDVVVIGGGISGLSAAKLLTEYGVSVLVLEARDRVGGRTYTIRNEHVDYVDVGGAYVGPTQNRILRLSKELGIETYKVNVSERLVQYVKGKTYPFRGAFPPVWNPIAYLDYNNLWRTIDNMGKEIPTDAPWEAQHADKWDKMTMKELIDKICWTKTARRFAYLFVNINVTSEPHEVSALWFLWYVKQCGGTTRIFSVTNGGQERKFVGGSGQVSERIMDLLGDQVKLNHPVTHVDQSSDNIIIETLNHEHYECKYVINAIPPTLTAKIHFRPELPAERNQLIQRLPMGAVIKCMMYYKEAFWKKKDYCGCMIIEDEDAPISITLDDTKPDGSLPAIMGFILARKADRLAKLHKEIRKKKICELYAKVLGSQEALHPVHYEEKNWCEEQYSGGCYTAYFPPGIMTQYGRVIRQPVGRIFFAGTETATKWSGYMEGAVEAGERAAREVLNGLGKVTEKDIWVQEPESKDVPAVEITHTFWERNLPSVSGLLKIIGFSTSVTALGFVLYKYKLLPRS

[4] = biological target: T4, recombinant human DAO (diamine oxidase) (Homo sapiens, UniProt P19801); test: Amplex Red HRP-coupled amine oxidase activity evaluation, recombinant human DAO; settings: substrate 1 mM putrescine; read-out: Inhibitory Activity (IC50, nM) DAO
T4 construct: purchased R&D systems
T4 sequence (P19801 20-751): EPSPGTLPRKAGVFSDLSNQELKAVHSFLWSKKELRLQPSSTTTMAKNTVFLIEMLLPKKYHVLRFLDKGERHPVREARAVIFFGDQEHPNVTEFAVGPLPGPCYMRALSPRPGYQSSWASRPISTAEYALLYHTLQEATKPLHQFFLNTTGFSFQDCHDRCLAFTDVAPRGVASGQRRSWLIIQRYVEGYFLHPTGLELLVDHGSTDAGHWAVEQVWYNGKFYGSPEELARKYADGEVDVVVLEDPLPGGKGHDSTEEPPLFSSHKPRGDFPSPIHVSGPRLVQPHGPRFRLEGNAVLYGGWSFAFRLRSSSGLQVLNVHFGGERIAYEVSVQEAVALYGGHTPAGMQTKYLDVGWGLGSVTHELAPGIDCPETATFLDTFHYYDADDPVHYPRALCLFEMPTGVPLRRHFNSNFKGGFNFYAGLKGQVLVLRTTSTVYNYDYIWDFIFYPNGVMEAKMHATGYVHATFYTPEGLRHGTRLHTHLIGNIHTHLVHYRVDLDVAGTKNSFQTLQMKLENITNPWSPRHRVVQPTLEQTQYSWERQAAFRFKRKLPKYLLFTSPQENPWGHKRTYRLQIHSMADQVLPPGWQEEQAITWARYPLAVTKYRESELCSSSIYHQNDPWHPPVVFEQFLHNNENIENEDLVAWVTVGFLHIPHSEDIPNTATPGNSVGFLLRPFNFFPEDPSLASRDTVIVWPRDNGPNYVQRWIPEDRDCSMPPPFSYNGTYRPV

Row | IC50 [1] [nM] | IC50 [2] [nM] | IC50 [3] [nM] | IC50 [4] [nM] | SMILES
1 | > 100000 | 1.1 | > 100000 | 8470 | NCC(Cn1nnn(-c2cc(-c3ccc(N4CCNCC4)cc3)cs2)c1=O)=C(F)F [Example 36, 1-[2-(aminomethyl)-3,3-difluoro-allyl]-4-[4-(4-piperazin-1-ylphenyl)-2-thienyl]tetrazol-5-one di-trifluoroacetate]
2 | 3450 | 0.3 | > 100000 | 25300 | CCn1cc(-c2csc(-n3nnn(CC(CN)=C(F)F)c3=O)c2)ccc1=O [Example 37, 5-[5-[4-[2-(aminomethyl)-3,3-difluoro-allyl]-5-oxo-tetrazol-1-yl]-3-thienyl]-1-ethyl-pyridin-2-one trifluoroacetate]
3 | 768 | 0.8 | > 100000 | > 100000 | CN(C)c1ccc(-c2csc(-n3nnn(CC(CN)=C(F)F)c3=O)c2)cn1 [Example 38, 1-[2-(aminomethyl)-3,3-difluoro-allyl]-4-[4-[6-(dimethylamino)-3-pyridyl]-2-thienyl]tetrazol-5-one trifluoroacetate]
4 | 21 | 0.6 | 26200 | 88 | NCC(Cn1nnn(-c2cc(-c3ccc4c(c3)OCO4)cs2)c1=O)=C(F)F [Example 39, 1-[2-(aminomethyl)-3,3-difluoro-allyl]-4-[4-(1,3-benzodioxol-5-yl)-2-thienyl]tetrazol-5-one trifluoroacetate]
5 | 123 | 0.4 | 56100 | 1.6 | Cc1cc(-c2csc(-n3nnn(CC(CN)=C(F)F)c3=O)c2)cc2c1NC(=O)CC2 [Example 40, 6-[5-[4-[2-(aminomethyl)-3,3-difluoro-allyl]-5-oxo-tetrazol-1-yl]-3-thienyl]-8-methyl-3,4-dihydro-1H-quinolin-2-one trifluoroacetate]
6 | 34 | 0.4 | > 100000 | 52 | CN1C(=O)CCc2cc(-c3csc(-n4nnn(CC(CN)=C(F)F)c4=O)c3)ccc21 [Example 41, 6-[5-[4-[2-(aminomethyl)-3,3-difluoro-allyl]-5-oxo-tetrazol-1-yl]-3-thienyl]-1-methyl-3,4-dihydroquinolin-2-one trifluoroacetate]
7 | 228 | 0.4 | > 100000 | 0.6 | CCn1cc(-c2csc(-n3nnn(CC(CN)=C(F)F)c3=O)c2)cn1 [Example 42, 1-[2-(aminomethyl)-3,3-difluoro-allyl]-4-[4-(1-ethylpyrazol-4-yl)-2-thienyl]tetrazol-5-one trifluoroacetate]
8 | 19700 | 0.4 | 72800 | 911 | CS(=O)(=O)c1ccc(-c2ccc(Cn3nnn(CC(CN)=C(F)F)c3=O)s2)cc1 [Example 43, 1-[2-(aminomethyl)-3,3-difluoro-allyl]-4-[[5-(4-methylsulfonylphenyl)-2-thienyl]methyl]tetrazol-5-one trifluoroacetate]
9 | 10000 | 0.3 | > 100000 | 762 | CCn1cc(-c2ccc(Cn3nnn(CC(CN)=C(F)F)c3=O)s2)ccc1=O [Example 44, 5-[5-[[4-[2-(aminomethyl)-3,3-difluoro-allyl]-5-oxo-tetrazol-1-yl]methyl]-2-thienyl]-1-ethyl-pyridin-2-one trifluoroacatate]
10 | 7210 | 0.6 | 49200 | 1870 | Cc1cc(-c2ccc(Cn3nnn(CC(CN)=C(F)F)c3=O)s2)cc2c1NC(=O)CC2 [Example 45, 6-[5-[[4-[2-(aminomethyl)-3,3-difluoro-allyl]-5-oxo-tetrazol-1-yl]methyl]-2-thienyl]-8-methyl-3,4-dihydro-1H-quinolin-2-one trifluoroacetate]
